In brackets after ≈: the same amount, converted by molar mass. Read-outs that look alike come from different tables or passages of the source.
Tests used:
[1] = system: Staphylococcus aureus strains (MRSA, hVISA/VISA); assay: Modified (macromethod) Etest, vancomycin MIC, 2 McFarland inoculum; format: cell-based; settings: for MIC: Staphylococcus aureus; for Modified Etest category: 2 McF inoculum; for Modified Etest category: key: S = sensitive; I = intermediate; R = resistant
Method: (§1) Vancomycin MICs were determined using standard Etest methods. Briefly, colonies from a fresh overnight plate were resuspended in saline to a turbidity equivalent to 0.5 McFarland units. This suspension was swabbed onto Mueller-Hinton agar plates, allowed to dry, and overlaid with a Vancomycin Etest strip (AB Biodisk). Plates were incubated at 37° C. for 48 h and interpreted. […] For some MRSA strains, the macromethod Etest was also applied, using an inoculum equivalent to 2 McFarland units on Brain-Heart Infusion agar plates.

[2] = system: Staphylococcus aureus strains (MRSA, hVISA/VISA); settings: cited from earlier work; for Modified Etest category: key: S = sensitive; I = intermediate; R = resistant
[3] = system: Staphylococcus aureus strains (MRSA, hVISA/VISA, in vitro-selected); settings: cited from earlier work; for CLSI Etest category: key: S = sensitive; I = intermediate; R = resistant
[4] = system: Japanese strain Mu3; settings: strain Mu3, tests as susceptible; cited from earlier work
[5] = system: Staphylococcus aureus strains (MRSA, hVISA/VISA, in vitro-selected); assay: CLSI-approved (standard) Etest, vancomycin MIC, 0.5 McFarland inoculum; format: cell-based; settings: for MIC: Staphylococcus aureus; for CLSI Etest category: key: S = sensitive; I = intermediate; R = resistant
Method: as §1

[6] = system: Staphylococcus aureus hVISA/VISA strains; set-up: key: CG, confluent growth; IC, individual colonies; NG, no growth; settings: cited from earlier work
[7] = strain 160013 (NRS283), 2 McF inoculum
[8] = strain BR 5 (NRS56), 2 McF inoculum
[9] = strain HIP07930 (NRS22), 2 McF inoculum
[10] = strain HIP09433 (NRS27), 2 McF inoculum
[11] = strain HIP09662 (NRS28), 2 McF inoculum
[12] = strain HIP12864 (NRS402), 2 McF inoculum
[13] = strain LIM 1 (NRS35), 2 McF inoculum
[14] = strain LIM 3 (NRS37), 2 McF inoculum
[15] = strain LY-1999 0620-01 (NRS63), 2 McF inoculum
[16] = strain LY-1999 0620-02 (NRS64), 2 McF inoculum
[17] = strain Mu3 (NRS2), 2 McF inoculum
[18] = strain Mu50 (NRS1), 2 McF inoculum
[19] = strain SA MER (NRS11), 2 McF inoculum
[20] = strain SA MER-S20 (NRS14), 2 McF inoculum
[21] = strain 160013 (NRS283), 0.5 McF inoculum
[22] = strain BR 5 (NRS56), 0.5 McF inoculum
[23] = strain HIP07930 (NRS22), 0.5 McF inoculum
[24] = strain HIP09433 (NRS27), 0.5 McF inoculum
[25] = strain HIP09662 (NRS28), 0.5 McF inoculum
[26] = strain HIP12864 (NRS402), 0.5 McF inoculum
[27] = strain LIM 1 (NRS35), 0.5 McF inoculum
[28] = strain LIM 3 (NRS37), 0.5 McF inoculum
[29] = strain LY-1999 0620-01 (NRS63), 0.5 McF inoculum
[30] = strain LY-1999 0620-02 (NRS64), 0.5 McF inoculum
[31] = strain Mu3 (NRS2), 0.5 McF inoculum
[32] = strain Mu50 (NRS1), 0.5 McF inoculum
[33] = strain NRS118, 0.5 McF inoculum
[34] = strain SA MER (NRS11), 0.5 McF inoculum
[35] = strain SA MER-S20 (NRS14), 0.5 McF inoculum

SMILES: CN[C@H](CC(C)C)C(=O)N[C@H]1C(=O)N[C@@H](CC(N)=O)C(=O)N[C@H]2C(=O)N[C@H]3C(=O)N[C@H](C(=O)N[C@H](C(=O)O)c4cc(O)cc(O)c4-c4cc3ccc4O)[C@H](O)c3ccc(c(Cl)c3)Oc3cc2cc(c3O[C@@H]2O[C@H](CO)[C@@H](O)[C@H](O)[C@H]2O[C@H]2C[C@](C)(N)[C@H](O)[C@H](C)O2)Oc2ccc(cc2Cl)[C@H]1O [vancomycin]
- MIC ([1]; read-out: Modified Etest MIC, strain CMRSA-1 (MRSA), 2 McF inoculum): 8 µg/mL (≈ 5.52 µM)
- MIC ([1]; read-out: Modified Etest MIC, strain CMRSA-2 (MRSA), 2 McF inoculum): 3 µg/mL (≈ 2.07 µM)
- MIC ([1]; read-out: Modified Etest MIC, strain CMRSA-3 (MRSA), 2 McF inoculum): 3 µg/mL (≈ 2.07 µM)
- MIC ([1]; read-out: Modified Etest MIC, strain CMRSA-4 (MRSA), 2 McF inoculum): 2 µg/mL (≈ 1.38 µM)
- Modified Etest category ([1]; strain CMRSA-1 (MRSA)): I
- Modified Etest category ([1]; strain CMRSA-2 (MRSA)): S
- Modified Etest category ([1]; strain CMRSA-3 (MRSA)): S
- Modified Etest category ([1]; strain CMRSA-4 (MRSA)): S
- Modified Etest MIC [2, 7]: 8 µg/mL
- Modified Etest category [2, 7]: I
- Modified Etest MIC [2, 8]: 16 µg/mL
- Modified Etest category [2, 8]: I
- Modified Etest MIC [2, 9]: 8 µg/mL
- Modified Etest category [2, 9]: I
- Modified Etest MIC [2, 10]: 8 µg/mL
- Modified Etest category [2, 10]: I
- Modified Etest MIC [2, 11]: 8 µg/mL
- Modified Etest category [2, 11]: I
- Modified Etest MIC [2, 12]: 48 µg/mL
- Modified Etest category [2, 12]: R
- Modified Etest MIC [2, 13]: 4 µg/mL
- Modified Etest category [2, 13]: S
- Modified Etest MIC [2, 14]: 6 µg/mL
- Modified Etest category [2, 14]: I
- Modified Etest MIC [2, 15]: 16 µg/mL
- Modified Etest category [2, 15]: I
- Modified Etest MIC [2, 16]: 6 µg/mL
- Modified Etest category [2, 16]: I
- Modified Etest MIC [2, 17]: 6 µg/mL
- Modified Etest category [2, 17]: I
- Modified Etest MIC [2, 18]: 12 µg/mL
- Modified Etest category [2, 18]: I
- Modified Etest MIC ([2]; strain NRS118, 2 McF inoculum): 24 µg/mL
- Modified Etest category ([2]; strain NRS118, 2 McF inoculum): I
- Modified Etest MIC [2, 19]: 8 µg/mL
- Modified Etest category [2, 19]: I
- Modified Etest MIC [2, 20]: 24 µg/mL
- Modified Etest category [2, 20]: I
- CLSI Etest MIC [3, 21]: 4 µg/mL
- CLSI Etest category [3, 21]: I
- CLSI Etest MIC [3, 22]: 8 µg/mL
- CLSI Etest category [3, 22]: I
- CLSI Etest MIC [3, 23]: 4 µg/mL
- CLSI Etest category [3, 23]: I
- CLSI Etest MIC [3, 24]: 4 µg/mL
- CLSI Etest category [3, 24]: I
- CLSI Etest MIC [3, 25]: 3 µg/mL
- CLSI Etest category [3, 25]: S
- CLSI Etest MIC [3, 26]: 8 µg/mL
- CLSI Etest category [3, 26]: I
- CLSI Etest MIC [3, 27]: 2 µg/mL
- CLSI Etest category [3, 27]: S
- CLSI Etest MIC [3, 28]: 4 µg/mL
- CLSI Etest category [3, 28]: I
- CLSI Etest MIC [3, 29]: 8 µg/mL
- CLSI Etest category [3, 29]: I
- CLSI Etest MIC [3, 30]: 1.5 µg/mL
- CLSI Etest category [3, 30]: S
- CLSI Etest MIC [3, 31]: 4 µg/mL
- CLSI Etest category [3, 31]: I
- CLSI Etest MIC [3, 32]: 8 µg/mL
- CLSI Etest category [3, 32]: I
- CLSI Etest MIC [3, 33]: 8 µg/mL
- CLSI Etest category [3, 33]: I
- CLSI Etest MIC [3, 34]: 2 µg/mL
- CLSI Etest category [3, 34]: S
- CLSI Etest MIC [3, 35]: 8 µg/mL
- CLSI Etest category [3, 35]: I
- MIC (minimum inhibitory concentration) [4]: < 4 µg/mL
- MIC ([5]; ATCC 29213 / MRSA / VISA, control strain S. aureus ATCC29213, read-out: MIC (standard Etest)): 1.5 µg/mL (≈ 1.04 µM)
- MIC ([5]; in vitro strain C1V8 derived from CMRSA-1, read-out: CLSI Etest MIC): 10 µg/mL (≈ 6.9 µM)
- MIC ([5]; in vitro strain C1V30 derived from CMRSA-1, read-out: CLSI Etest MIC): 16 µg/mL (≈ 11 µM)
- MIC ([5]; in vitro strain C2V4 derived from CMRSA-2, read-out: CLSI Etest MIC): 6 µg/mL (≈ 4.14 µM)
- MIC ([5]; in vitro strain C2V8 derived from CMRSA-2, read-out: CLSI Etest MIC): 9 µg/mL (≈ 6.21 µM)
- MIC ([5]; in vitro strain C2V24 derived from CMRSA-2, read-out: CLSI Etest MIC): 30 µg/mL (≈ 20.7 µM)
- MIC ([5]; in vitro strain C3V24 derived from CMRSA-3, read-out: CLSI Etest MIC): 20 µg/mL (≈ 13.8 µM)
- MIC ([5]; in vitro strain C4V8 derived from CMRSA-4, read-out: CLSI Etest MIC): 5 µg/mL (≈ 3.45 µM)
- MIC ([5]; read-out: CLSI Etest MIC, in vitro strain C1V4 derived from CMRSA-1): 5 µg/mL (≈ 3.45 µM)
- MIC ([5]; strain CMRSA-1 (MRSA), 0.5 McF inoculum, read-out: CLSI Etest MIC): 1.5 µg/mL (≈ 1.04 µM)
- MIC ([5]; strain CMRSA-2 (MRSA), 0.5 McF inoculum, read-out: CLSI Etest MIC): 1.5 µg/mL (≈ 1.04 µM)
- MIC ([5]; strain CMRSA-4 (MRSA), 0.5 McF inoculum, read-out: CLSI Etest MIC): 1 µg/mL (≈ 0.69 µM)
- CLSI Etest category ([5]; in vitro strain C1V4 derived from CMRSA-1): I
- CLSI Etest category ([5]; in vitro strain C1V8 derived from CMRSA-1): I
- CLSI Etest category ([5]; in vitro strain C1V30 derived from CMRSA-1): I
- CLSI Etest category ([5]; in vitro strain C2V4 derived from CMRSA-2): I
- CLSI Etest category ([5]; in vitro strain C2V8 derived from CMRSA-2): I
- CLSI Etest category ([5]; in vitro strain C2V24 derived from CMRSA-2): I
- CLSI Etest category ([5]; in vitro strain C3V4 derived from CMRSA-3): S
- CLSI Etest category ([5]; in vitro strain C3V8 derived from CMRSA-3): I
- CLSI Etest category ([5]; in vitro strain C3V24 derived from CMRSA-3): I
- CLSI Etest category ([5]; in vitro strain C4V8 derived from CMRSA-4): I
- CLSI Etest category ([5]; in vitro strain C4V20 derived from CMRSA-4): I
- CLSI Etest category ([5]; strain CMRSA-1 (MRSA), 0.5 McF inoculum): S
- CLSI Etest category ([5]; strain CMRSA-2 (MRSA), 0.5 McF inoculum): S
- CLSI Etest category ([5]; strain CMRSA-3 (MRSA), 0.5 McF inoculum): S
- CLSI Etest category ([5]; strain CMRSA-4 (MRSA), 0.5 McF inoculum): S
- Agar screen growth ([6]; strain 160013 (NRS283), 48 h incubation): IC (48)
- Agar screen growth ([6]; strain BR 5 (NRS56), 24 h incubation): CG (24)
- Agar screen growth ([6]; strain HIP07930 (NRS22), 48 h incubation): IC (48)
- Agar screen growth ([6]; strain HIP09433 (NRS27), 72 h incubation): NG (72)
- Agar screen growth ([6]; strain HIP09662 (NRS28), 72 h incubation): NG (72)
- Agar screen growth ([6]; strain HIP12864 (NRS402), 24 h incubation): CG (24)
- Agar screen growth ([6]; strain LIM 1 (NRS35), 72 h incubation): NG (72)
- Agar screen growth ([6]; strain LIM 3 (NRS37), 72 h incubation): NG (72)
- Agar screen growth ([6]; strain LY-1999 0620-01 (NRS63), 48 h incubation): IC (48)
- Agar screen growth ([6]; strain LY-1999 0620-02 (NRS64), 72 h incubation): NG (72)
- Agar screen growth ([6]; strain Mu3 (NRS2), 72 h incubation): NG (72)
- Agar screen growth ([6]; strain Mu50 (NRS1), 24 h incubation): CG (24)
- Agar screen growth ([6]; strain NRS118, 24 h incubation): CG (24)
- Agar screen growth ([6]; strain SA MER (NRS11), 72 h incubation): NG (72)
- Agar screen growth ([6]; strain SA MER-S20 (NRS14), 24 h incubation): CG (24)

Reference: patent publication US20100099088A1, “RELIABLE DETECTION OF VANCOMYCIN-INTERMEDIATE STAPHYLOCOCCUS AUREUS” (priority 2006, published 2010)
